The results in this text go back to article PMC10376326, “Novel Acylselenourea Derivatives: Dual Molecules with Anticancer and Radical Scavenging Activity” (Antioxidants, 2023).

Assay [1] can be described thus: DPPH radical scavenging assay. Format: biochemical. Particulars: for DPPH Inhibitory%: acylselenourea analogs. Here is the method: Different methods are available to quantify the antioxidant capacity of natural or novel molecules. Notable among these are the ABTS^•+ and DPPH^• methods, which measure the quenching efficiency in vitro for known concentrations of preformed radicals. In this work, the DPPH^• colorimetric assay was carried out. Measurements were recorded on a BioTeck PowerWave XS spectrophotometer (BioTeck Instruments, Winooski, VT, USA) and data were collected using KCJunior v.1.41. software (BioTeck Instruments, Winooski, VT, USA). Compounds with potent activity were selected to further determine their protective effect against ROS-induced cell death caused by H2O2.
DPPH colorimetric assay was performed to determine the in vitro radical scavenging activity of the acylselenourea derivatives. DPPH assay was performed as described by Svinyarov. For each acylselenourea, a stock solution of 1 mg/mL in dimethyl sulfoxide (DMSO) was made, and these solutions were used to prepare the different concentrations employed in the assay. The compounds were tested at two different concentrations (0.003 and 0.03 mg/mL). Intermediate solutions were prepared in methanol and a volume of 100 µL of each was added to each well of the plate. Then, 100 µL of DPPH^• (previously prepared at a concentration of 0.04 mg/mL in methanol and preserved in the dark) was added to the previous methanolic acylselenourea solutions. The discoloration of the purple radical to the yellow reduced form was followed at 517 nm at different time points (0, 5, 15, 30, 60, 90, and 120 min). Ascorbic acid and trolox were used as positive controls. All measurements were carried out in triplicate. Results are expressed as the percentage of the radicals scavenged, calculated using the following formula: (1) % DPPH radical scavenging=Acontrol - Asample/Acontrol × 100 where Acontrol refers to the absorbance of the negative control and Asample refers to the absorbance of the tested compounds. Results are expressed as percentage of DPPH radical scavenging ± SD.

The test system of assay [2] is HTB-54 (lung) cancer cell line. The assay can be described thus: MTT cell viability assay, HTB-54. Format: cell-based, human. The conditions noted are these: Homo sapiens, HTB-54, 48 h; for activity at 10 µM: read-out: Cell growth %, HTB-54, 10 µM, 48 h, MTT; for activity at 50 µM: read-out: Cell growth %, HTB-54, 50 µM, 48 h, MTT. The method, then: (§1) Cell lines were purchased from the American Type Culture Collection (ATCC). Cell lines MDA-MB-231, HTB-54, DU-145, and BEAS-2B were cultured in RPMI 1640 medium (Gibco, Thermo Fisher Scientific, Gaithersburg, MD, USA) supplemented with 10% fetal bovine serum (FBS; Gibco), 100 units/mL penicillin, and […] streptomycin (Gibco). HT-29 cell line was grown in McCoy’s 5A (Gibco), 10% FBS, 100 units/mL penicillin, and 100 μg/mL streptomycin. Cells were maintained at 37 °C and 5% CO2. The culture medium was changed every three days.
(§2) The cell viability of each compound was measured by MTT colorimetric assay. Each compound was dissolved in DMSO at a concentration of 0.01 M. Each compound was tested at two different concentrations (10 and 50 µM) in MDA-MB-231 (breast), HTB-54 (lung), DU-145 (prostate), and HT-29 (colon) human cancer cell lines. Serial dilutions were prepared with supplemented culture medium. […] IC50 and selectivity indexes (SI) were determined.
(§3) Briefly, 1 × 10^4 tumor cells per well were grown in 96-well plates for 24 h. Then, these cells were incubated for 48 h with either DMSO (control) or a different concentration of each of the tested compounds. The cell viability was determined by adding 20 μL of MTT two hours and a half before the termination point. After this time, the culture medium was removed. The resulting formazan crystals were dissolved in 50 μL of DMSO, and the absorbance was measured at 570 nm. Results are expressed as % cell growth. The data were obtained from at least three independent experiments performed in quadruplicate.

Assay [3] concerns MDA-MB-231 (breast) cancer cell line. The assay can be described thus: MTT cell viability assay, MDA-MB-231. It counts as cell-based, human. The conditions noted are these: Homo sapiens, MDA-MB-231, 48 h; for activity at 10 µM: read-out: Cell growth %, MDA-MB-231, 10 µM, 48 h, MTT; for activity at 50 µM: read-out: Cell growth %, MDA-MB-231, 50 µM, 48 h, MTT. The method, then: as §1, §2, §3
On the technique in general: Formazan colour is commonly taken as a measure of viable cells.

Assay [4] deals with DU-145 (prostate) cancer cell line. The assay can be described thus: MTT cell viability assay, DU-145. Particulars: for activity at 10 µM / activity at 50 µM: Homo sapiens, DU-145, 48 h; for activity at 10 µM: read-out: Cell growth %, DU-145, 10 µM, 48 h, MTT; for activity at 50 µM: read-out: Cell growth %, DU-145, 50 µM, 48 h, MTT. Format: cell-based, human. Here is the method: as §1, §2, §3

Assay [5] concerns HT-29 (colon) cancer cell line. The assay can be described thus: MTT cell viability assay, HT-29. Format: cell-based. Particulars: Homo sapiens, HT-29, 48 h, read-out: Cell growth %; for activity at 10 µM: HT-29, 10 µM; for activity at 50 µM: HT-29, 50 µM. The method, then:
as §1, §2, §3

In general, inhibition refers to the change of the read-out against control, counted positive when it falls. Low values mean little suppression, high ones strong suppression. Take `C=CCNC(=[Se])NC(=O)c1ccccc1` [Compound 5.II, N-(allylcarbamoselenoyl)benzamide]: the inhibition in assay [1] (0.003 mg/mL, 0 min) was 1.3 ± 1.7%; in assay [1] (0.003 mg/mL, 5 min), 4.5 ± 1.7%; in assay [1] (0.003 mg/mL, 15 min), 7.5 ± 1.7%; in assay [1] (0.003 mg/mL, 30 min) it was 10.4 ± 1.8%; in assay [1] (0.003 mg/mL, 60 min), 13.9 ± 1.9%; in assay [1] (0.003 mg/mL, 90 min), 16.2 ± 2%. Also, the inhibition in assay [1] (0.003 mg/mL, 120 min) turned out to be 17.8 ± 2.1%; in assay [1] (0.03 mg/mL, 0 min) it was 13.5 ± 1.3%; in assay [1] (0.03 mg/mL, 5 min) it was 42.4 ± 1.5%; in assay [1] (0.03 mg/mL, 15 min) it was 62.7 ± 0.8%; in assay [1] (0.03 mg/mL, 30 min), 80.2 ± 1.1%; in assay [1] (0.03 mg/mL, 60 min), 97.2 ± 0.7%. In addition, the inhibition in assay [1] (0.03 mg/mL, 120 min) was determined as 97.7 ± 1%. Besides, the “time to reach the highest DPPH inhibition” value in assay [1] (0.03 mg/mL) is on record as 60 min. Further, the “DPPH Inhibitory%” value in assay [1] (0.03 mg/mL, 90 min) amounted to 97.4 ± 0.8%. Also, the activity at 10 µM worked out at 67.6 ± 14.9% in assay [2], 80.4 ± 8.4% in assay [3], 97.5 ± 18.5% in assay [4] and 100 ± 16.6% in assay [5]. The activity at 50 µM in assay [2] amounted to 16.9 ± 4.1%; in assay [3], 15.6 ± 6%; in assay [4], 10.3 ± 4.9%; in assay [5] it was 23.9 ± 5%.

As to `C#CCNC(=[Se])NC(=O)c1ccccc1` [Compound 5.III, N-(prop-2-in-1-ylcarbamoselenoyl)benzamide], the inhibition in assay [1] (0.003 mg/mL, 0 min) is 0.6 ± 1.2%; in assay [1] (0.003 mg/mL, 5 min), 2.9 ± 1%; in assay [1] (0.003 mg/mL, 15 min), 5.1 ± 1.3%; in assay [1] (0.003 mg/mL, 30 min), 7.2 ± 1.6%; in assay [1] (0.003 mg/mL, 90 min), 11.3 ± 2%; in assay [1] (0.003 mg/mL, 120 min), 12.3 ± 2.1%. Further, the inhibition came to 9.3 ± 1% in assay [1] (0.03 mg/mL, 0 min); 9.8 ± 0.3% in assay [1] (0.03 mg/mL, 5 min); 23 ± 0.3% in assay [1] (0.03 mg/mL, 15 min); 34 ± 0.6% in assay [1] (0.03 mg/mL, 30 min); 46.6 ± 0.9% in assay [1] (0.03 mg/mL, 60 min); 60.2 ± 0.7% in assay [1] (0.03 mg/mL, 120 min). For the same compound, the “DPPH Inhibitory%” value in assay [1] (0.03 mg/mL, 90 min) is 54.6 ± 0.8%. Further, the activity at 10 µM in assay [2] was 76 ± 4.8%; in assay [3], 78.5 ± 12%; in assay [4], 80.8 ± 7.4%; in assay [5], 70 ± 8.7%. For the same compound, the activity at 50 µM in assay [2] amounted to 33.4 ± 8.6%; in assay [3], 33.3 ± 6.5%; in assay [4] it was 26.3 ± 6.5%; in assay [5], 33.9 ± 4.5%.

In the case of `C=CCNC(=[Se])NC(=O)/C=C/c1ccccc1` [Compound 6.II, N-(allylcarbamoselenoyl)cinnamamide], the inhibition in assay [1] (0.003 mg/mL, 0 min) came out at 0%; in assay [1] (0.003 mg/mL, 5 min), 0%; in assay [1] (0.003 mg/mL, 15 min), 0%; in assay [1] (0.003 mg/mL, 30 min), 0%; in assay [1] (0.003 mg/mL, 60 min) it was 0%; in assay [1] (0.003 mg/mL, 90 min), 0.5 ± 2.3%. In addition, the inhibition in assay [1] (0.003 mg/mL, 120 min) worked out at 1.1 ± 2.3%; in assay [1] (0.03 mg/mL, 0 min), 0%; in assay [1] (0.03 mg/mL, 5 min), 1 ± 1.7%; in assay [1] (0.03 mg/mL, 15 min), 4.6 ± 1.3%; in assay [1] (0.03 mg/mL, 30 min), 9.8 ± 1.1%; in assay [1] (0.03 mg/mL, 60 min), 18.8 ± 0.9%. The same compound had an inhibition in assay [1] (0.03 mg/mL, 120 min) of 34.2 ± 0.7%. The “DPPH Inhibitory%” value in assay [1] (0.03 mg/mL, 90 min) is given as 26.7 ± 0.6%. The activity at 10 µM in assay [2] was determined as 68.7 ± 8.2%; in assay [3], 51.8 ± 6.8%; in assay [4] it was 57.3 ± 3.6%; in assay [5], 94.7 ± 5.3%. Also, the activity at 50 µM in assay [2] worked out at 44.1 ± 10.6%; in assay [3], 30.5 ± 7.1%; in assay [4], 14.6 ± 4.5%; in assay [5], 56.1 ± 11%. In assay [4] (DU-145, 10 µM, 48 h, MTT), this compound came in with a cell growth % of 57.30%.
